Experimental data published in ChEMBL document CHEMBL1201862, “PubChem BioAssay data set” (2004).
Several values for one entry are separate records, joined by “and”; a condition that tells them apart may be missing. Equal values may be shown once.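 Cells were grown in 96-well plates and exposed to each compound for 48 hours at five concentrations; endpoints were interpolated linearly between bracketing concentrations, or set to the highest concentration if not reached. GI50: concentration for 50% inhibition of growth.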 Activity calls are given as the source filed them. Cut-off read from the data, not from the text of the source: active = GI50 up to about 1.1 µM and inactive = higher.

Columns and labels:
Experiment in all cases: NCI-60 cell line screen, 48 h
HCT-15 = system: HCT-15
HCT-116 = system: HCT-116
NCI/ADR-RES = system: NCI/ADR-RES
MOLT-4 = system: MOLT-4
CCRF-CEM = system: CCRF-CEM
HOP-92 = system: HOP-92
DU-145 = system: DU-145
DLD-1 = system: DLD-1
MDA-MB-435 = system: MDA-MB-435
XF498 = system: XF498
M19-MEL = system: M19-MEL
SF-295 = system: SF-295
MCF7 = system: MCF7
MDA-MB-231 = system: MDA-MB-231
MDA-N = system: MDA-N
DMS-273 = system: DMS-273
BT-549 = system: BT-549
LXFL 529 = system: LXFL 529
PC-3 = system: PC-3
Hs-578T = system: Hs-578T
HOP-18 = system: HOP-18
DMS-114 = system: DMS-114
T47D = system: T47D
SR = system: SR
KM-20L2 = system: KM-20L2
SNB-78 = system: SNB-78
HT-29 = system: HT-29
SK-MEL-2 = system: SK-MEL-2
SK-OV-3 = system: SK-OV-3
SK-MEL-5 = system: SK-MEL-5
TK-10 = system: TK-10
UACC-62 = system: UACC-62
OVCAR-8 = system: OVCAR-8
Malme-3M = system: Malme-3M
RPMI-8226 = system: RPMI-8226
OVCAR-3 = system: OVCAR-3
786-0 = system: 786-0
NCI-H522 = system: NCI-H522
M14 = system: M14
ACHN = system: ACHN
NCI-H23 = system: NCI-H23
UO-31 = system: UO-31
U-251 = system: U-251
SF-268 = system: SF-268
SNB-19 = system: SNB-19
CAKI-1 = system: CAKI-1
HL-60 = system: HL-60
SK-MEL-28 = system: SK-MEL-28
SF-539 = system: SF-539
LOX IMVI = system: LOX IMVI
KM12 = system: KM12
HCC 2998 = system: HCC 2998
SNB-75 = system: SNB-75
RXF 631 = system: RXF 631
NCI-H460 = system: NCI-H460
A498 = system: A498
SW-620 = system: SW-620
OVCAR-5 = system: OVCAR-5
OVCAR-4 = system: OVCAR-4
A549 = system: A549
IGROV-1 = system: IGROV-1
HOP-62 = system: HOP-62
K562 = system: K562
EKVX = system: EKVX
UACC-257 = system: UACC-257
RXF 393 = system: RXF 393
COLO 205 = system: COLO 205
NCI-H226 = system: NCI-H226
SN12C = system: SN12C

With `CCN(CC)CCN1C(=O)c2c(c3c4cccc(Cl)c4n(C4OC(CO)C(OC)C(O)C4O)c3c3[nH]c4c(Cl)cccc4c23)C1=O` (stereo not drawn) the GI50 (HCT-15) was 0.103 µM and 0.132 µM, the GI50 (HCT-116) was < 0.0164 µM (active) and the GI50 (NCI/ADR-RES) was 0.169 µM (active). For the same compound, the GI50 (MOLT-4) was < 10 nM (active) and 17.6 nM (active), the GI50 (CCRF-CEM) was < 0.0166 µM (active) and the GI50 (HOP-92) was < 34.4 nM (active) and < 24 nM (active). For the same compound, the GI50 (DU-145) was 0.0121 µM (active), the GI50 (DLD-1) was 0.0918 µM (active) and the GI50 (MDA-MB-435) was 0.0147 µM (active). For the same compound, the GI50 (XF498) was 0.0463 µM (active), the GI50 (M19-MEL) was 0.0303 µM (active) and the GI50 (SF-295) was < 0.0165 µM (active). The GI50 (MCF7) was < 0.01 µM (active), the GI50 (MDA-MB-231) was 0.182 µM (active) and the GI50 (MDA-N) was 0.0111 µM (active). The GI50 (DMS-273) was < 0.0178 µM (active), the GI50 (BT-549) was 0.175 µM (active) and the GI50 (LXFL 529) was < 0.0239 µM (active). The GI50 (PC-3) was < 0.0386 µM (active), the GI50 (Hs-578T) was 0.0379 µM (active) and the GI50 (HOP-18) was 0.00101 µM (active). For the same compound, the GI50 (DMS-114) was 0.0413 µM (active), the GI50 (T47D) was 0.0212 µM (active) and the GI50 (SR) was < 0.0137 µM (active). For the same compound, the GI50 (KM-20L2) was 0.773 µM (active), the GI50 (SNB-78) was 0.00101 µM (active) and the GI50 (HT-29) was < 0.0189 µM (active). For the same compound, the GI50 (SK-MEL-2) was 42.8 nM (active) and 68.1 nM (active).
`Brc1cc2c(cc1C1SCCS1)OCO2` was tested, and the GI50 (HCT-15) was over 100 µM, the GI50 (SK-OV-3) was > 100 µM (inactive) and the GI50 (HCT-116) was > 100 µM (inactive). For the same compound, the GI50 (MOLT-4) was 80.4 µM (inactive), the GI50 (CCRF-CEM) was > 100 µM (inactive) and the GI50 (SK-MEL-5) was > 100 µM (inactive). For the same compound, the GI50 (TK-10) was > 100 µM (inactive), the GI50 (UACC-62) was > 100 µM (inactive) and the GI50 (OVCAR-8) was > 100 µM (inactive). For the same compound, the GI50 (Malme-3M) was > 100 µM (inactive), the GI50 (DLD-1) was > 100 µM (inactive) and the GI50 (RPMI-8226) was 89.5 µM (inactive). For the same compound, the GI50 (OVCAR-3) was > 100 µM (inactive), the GI50 (786-0) was > 100 µM (inactive) and the GI50 (NCI-H522) was > 100 µM (inactive). For the same compound, the GI50 (M14) was > 100 µM (inactive), the GI50 (ACHN) was > 100 µM (inactive) and the GI50 (NCI-H23) was > 100 µM (inactive). For the same compound, the GI50 (UO-31) was > 100 µM (inactive), the GI50 (SF-295) was > 100 µM (inactive) and the GI50 (U-251) was > 100 µM (inactive). For the same compound, the GI50 (SF-268) was > 100 µM (inactive), the GI50 (SNB-19) was > 100 µM (inactive) and the GI50 (DMS-273) was > 100 µM (inactive). The GI50 (CAKI-1) was > 100 µM (inactive), the GI50 (HL-60) was 96.4 µM (inactive) and the GI50 (SK-MEL-28) was > 100 µM (inactive). For the same compound, the GI50 (SF-539) was > 100 µM (inactive), the GI50 (LXFL 529) was > 100 µM (inactive) and the GI50 (LOX IMVI) was 81.7 µM (inactive). For the same compound, the GI50 (KM12) was > 100 µM (inactive), the GI50 (HOP-18) was > 100 µM (inactive) and the GI50 (HCC 2998) was > 100 µM (inactive). For the same compound, the GI50 (DMS-114) was 37.3 µM (inactive), the GI50 (SNB-75) was > 100 µM (inactive) and the GI50 (RXF 631) was > 100 µM (inactive). For the same compound, the GI50 (NCI-H460) was > 100 µM (inactive), the GI50 (SR) was > 100 µM (inactive) and the GI50 (A498) was > 100 µM (inactive). For the same compound, the GI50 (SW-620) was > 100 µM (inactive), the GI50 (KM-20L2) was > 100 µM (inactive) and the GI50 (SNB-78) was > 100 µM (inactive). For the same compound, the GI50 (OVCAR-5) was > 100 µM (inactive), the GI50 (OVCAR-4) was > 100 µM (inactive) and the GI50 (A549) was > 100 µM (inactive). For the same compound, the GI50 (IGROV-1) was > 100 µM (inactive), the GI50 (HOP-62) was > 100 µM (inactive) and the GI50 (K562) was 59.2 µM (inactive). For the same compound, the GI50 (EKVX) was > 100 µM (inactive), the GI50 (HT-29) was > 100 µM (inactive) and the GI50 (UACC-257) was > 100 µM (inactive). For the same compound, the GI50 (SK-MEL-2) was > 100 µM (inactive).
In the case of `Cc1nc(-n2nc(-c3ccccc3)cc2-c2ccccc2)sc1C(=O)/C=C/c1ccc(Cl)c(Cl)c1`, the GI50 (HCT-15) is reported as 15.9 µM, the GI50 (SK-OV-3) is reported as > 100 µM (inactive) and the GI50 (HCT-116) is reported as 26.7 µM (inactive). For the same compound, the GI50 (MOLT-4) was 11.8 µM (inactive), the GI50 (CCRF-CEM) was 16.9 µM (inactive) and the GI50 (TK-10) was 43.2 µM (inactive). For the same compound, the GI50 (UACC-62) was 4.89 µM (inactive), the GI50 (RXF 393) was 28.1 µM (inactive) and the GI50 (OVCAR-8) was 14.1 µM (inactive). For the same compound, the GI50 (Malme-3M) was 32.4 µM (inactive), the GI50 (DLD-1) was 13.4 µM (inactive) and the GI50 (OVCAR-3) was 15.9 µM (inactive). For the same compound, the GI50 (786-0) was 15.7 µM (inactive), the GI50 (XF498) was 17.1 µM (inactive) and the GI50 (NCI-H522) was 10 µM (inactive). The GI50 (M14) was 17.6 µM (inactive), the GI50 (M19-MEL) was 51.6 µM (inactive) and the GI50 (ACHN) was 23.7 µM (inactive). For the same compound, the GI50 (NCI-H23) was 49.2 µM (inactive), the GI50 (UO-31) was 10.6 µM (inactive) and the GI50 (SF-295) was 16.7 µM (inactive). The GI50 (U-251) was 11.6 µM (inactive), the GI50 (SF-268) was 33.1 µM (inactive) and the GI50 (COLO 205) was 28.7 µM (inactive). The GI50 (SNB-19) was 16.3 µM (inactive), the GI50 (DMS-273) was 32.2 µM (inactive) and the GI50 (CAKI-1) was 24.8 µM (inactive). For the same compound, the GI50 (NCI-H226) was 15.3 µM (inactive), the GI50 (HL-60) was 14 µM (inactive) and the GI50 (SK-MEL-28) was 31.3 µM (inactive). For the same compound, the GI50 (SF-539) was 18.3 µM (inactive), the GI50 (LXFL 529) was 15.3 µM (inactive) and the GI50 (LOX IMVI) was 13.1 µM (inactive). For the same compound, the GI50 (KM12) was 8.67 µM (inactive), the GI50 (HCC 2998) was 24.7 µM (inactive) and the GI50 (DMS-114) was 33.3 µM (inactive). For the same compound, the GI50 (SN12C) was 15.7 µM (inactive), the GI50 (RXF 631) was 8.26 µM (inactive) and the GI50 (NCI-H460) was > 100 µM (inactive). The GI50 (SR) was 17.2 µM (inactive), the GI50 (SW-620) was 21.5 µM (inactive) and the GI50 (KM-20L2) was 12.2 µM (inactive). For the same compound, the GI50 (SNB-78) was 15.6 µM (inactive), the GI50 (OVCAR-5) was 18.8 µM (inactive) and the GI50 (OVCAR-4) was 21.1 µM (inactive). For the same compound, the GI50 (A549) was 25.6 µM (inactive), the GI50 (IGROV-1) was 12.1 µM (inactive) and the GI50 (HOP-62) was 21.9 µM (inactive). The GI50 (K562) was 15.8 µM (inactive), the GI50 (EKVX) was 27 µM (inactive) and the GI50 (HT-29) was > 10 µM (inactive). The GI50 (UACC-257) was 25.8 µM (inactive) and the GI50 (SK-MEL-2) was 41.7 µM (inactive).
